Measured values taken from patent publication US20250042968A1, “EPHRIN LIGAND MIMETIC PEPTIDES FOR THE TREATMENT OF NEURODEGENERATIVE DISEASES” (University of Miami, priority 2022, published 2025).

Legend:
[1] = tested on: Ephexin-1; assay: Western blot of phosphorylated Ephexin-1 in mRGCs; type: cell-based, mouse; conditions: 500 nM
Experimental: (§1) On day 4, cells were treated with pre-clustered recombinant mouse EfnA5-His ligand [(+) Control, using anti-His_Tag antibody for 30 minutes] for 2 hours. Cells were then lysed in RIPA buffer containing protease and phosphatase inhibitor cocktails and maintained on ice. Protein was quantified using a BCA assay, and 10 μg of total protein was run on a TGX stain-free Any kD gel (BioRad) and transferred using the trans-blot turbo system (BioRad). Following transfer and blocking in 5% nonfat milk for 1 h, blots were probed with antibodies against RhoA, phosphorylated Rac1, ARHGEF15, Ephexin-1, or beta-actin as an endogenous loading control overnight at 4° C. Blots were then washed 3×5 min in PBS-T and incubated in the appropriate HRP-conjugated secondary antibody for 2 h at room temperature. Blots were imaged using chemiluminescent ECL substrate (Pierce) on a BioRad ChemiDoc MP imaging system and software.

[2] = tested on: RGCs and optic nerve axons after optic nerve crush (ONC); assay: Mouse model of optic nerve crush (ONC), intravitreal xEFN peptides; type: in vivo; conditions: for RGC pool rescue / survival over PBS-treated controls: intravitreal, 4 weeks after injury; for regenerating axons compared to controls: starting at 100 μm past the injury site and throughout the analysis window
Experimental: Antagonizing forward Eph signaling has been proven beneficial in a number of CNS disorders (Neurogastroenterol Motil. 2020:e13782; Acta Neuropathol Commun. 2018; 6(1):111; Proc Natl Acad Sci USA. 2014 Jul. 8; 111(27):9959-64; Eur J Neurosci. 2014 Oct; 40(7):3021-31; Neuroscience. 2013 Jun. 25; 241:89-99). The use of xEFN peptides as multi-Eph receptor antagonists was evaluated in treating retinal degeneration induced by optic nerve crush (ONC). The ONC model is the most commonly used model for the study of glaucoma and other optic neuropathies. All animal experiments were performed in compliance with the National Institutes of Health (Bethesda, MD, USA) Guide for the Care and Use of Laboratory Animals and the ARVO Statement for the Use of Animals in Ophthalmic and Vision Research. Animal protocols were reviewed and approved by the Institutional Animal Care and Use Committee of the University of Miami. […] With the use of jeweler's forceps (Dumont No. 5; tip dimension, 0.1×0.06 mm), the optic nerve is then crushed for 10 seconds at a location 2 mm distal from its insertion point into the globe. […] […]. At 4 weeks post-injury, animals were euthanized and enucleated for extraction of the retinas and optic nerves. Retinas were stained by immunohistochemistry for TUBB3 and RGCs were manually counted in each animal. Optic nerves were placed into tissue clearing solution for 1 week and then imaged for the CTB-647 label as whole mounts using a Leica SP8 Laser Scanning Confocal microscope (Leica Microsystems). Axonal projections were quantified at 100 μm intervals along the optic nerve track for up to 2 mm past the crush site using the fluorometric intensity measurement and analysis tool in the Leica LAS X microscopy suite software package, using the contralateral nerve (not CTB-injected) as a background reading for 647 nm fluorometric intensity in each sample.

[3] = tested on: phosphorylated Rac1; assay: Western blot of phosphorylated Rac1 in mRGCs; type: cell-based, mouse; conditions: 500 nM
Experimental: as §1

[4] = tested on: human fetal brain-derived neural stem cells (hNSC); assay: hNSC growth on ephrin-ligand repulsive substrates; type: cell-based; conditions: 500 nM, 5-day culture, over control cultures
Experimental: Fetal brain-derived neural stem cells (hNSC): In order to evaluate the effect of xEFN peptides on human neuronal cells, StemPro hNSC were purchased from ThermoFisher Scientific (Cat. no. A15654) and cultured according to the manufacturer's recommended protocol. Briefly, cells were grown in non-adherent neurosphere suspension cultures in StemPro NSC serum-free media (NSC-SFM) (Cat. no. A10509-01) supplemented with 2 mM GlutaMAX-I supplement, 6 U/mL heparin, and 200 μM ascorbic acid (Sigma-Aldrich, Cat. no. A8960). Culture media was changed every 2 days and cells were passaged every 7 days as undifferentiated hNSC. To induce differentiation into neuronal cells, hNSC neurospheres were dissociated into single-cell suspensions using StemPro Accutase for 5 minutes at 37° C. followed by mechanical pipetting. hNSC were then plated onto Geltrex-coated culture vessels at a concentration of 2×10^4 cells/cm^2 in neuronal differentiation media consisting of NSC media without bFGF or EGF and supplemented with B-27 supplement (ThermoFisher Scientific) for 3 days prior to performing further in vitro assays.
Glial-bound efn ligands have been associated with mediating the major repulsive milieu for neuronal process in the CNS. […] Moreover, assays on the repulsive nature of efn ligand-presenting surfaces have been a mainstay in axonal guidance studies for many decade. The use of xEFN peptides to antagonize this repulsive signaling from efn ligand substrates was evaluated on human fetal brain-derived neural stem cells (hNSC).
Recombinant Efn ligands (A2, A4, and B3) containing a His-Tag were purchased from R&D Systems, and were pre-clustered using an anti-His antibody (Genetex) for 30 min. The pre-clustered Efn ligands, or anti-his antibody alone, (control) were then mixed with laminin from human placenta (Sigma-Aldrich) in suspension and used to coat the growth surface of a 24-well plate. […] The entire wells were then scanned using an EVOS FL Auto fluorescent microscope and the images were analyzed in the ImageJ software to calculate cell coverage area.

## FTIKFQEFSPNLWGL [xEFN_RBD3]
[1]
  phosphorylation of Ephexin-1: decrease
[2]; 6 μg intravitreal twice (immediately after ONC and 7 days after), 4 weeks, compared to uninjured contralateral retina
  RGC survival: 44.17+/−2.39%
[2]; CTB labeled axons, 4 weeks post-ONC, analysis region 2000 μm
  axonal projections detected distal to the crush site: ≥ 2000 μm
[2]
  RGC pool rescue / survival over PBS-treated controls: significant rescue
  regenerating axons compared to controls: significant increase
[2]; listed as xEFN_EBD3
  RGC pool rescue / survival over PBS-treated controls: significant RGC survival
  regenerating axons compared to controls: axonal regeneration
[3]
  phosphorylation of Rac1 by pre-clustered ephrinA5 ligand stimulation: inhibited
[4]
  confluence coverage on efnA2 substrate: 120.62+/−10.89%
  confluence coverage on efnA4 substrate: 125.83+/−2.92%
  confluence coverage on efnB3 substrate: 96.51+/−7.15%
